Experimental data from patent publication US12152038B2, “Vasopressin receptor antagonists and products and methods related thereto” (Neumora Therapeutics, Inc., priority 2017, dated 2024).

Experiments:
[1] = target: T1, human Arginine Vasopressin Receptor 1a (AVPR1a) (Homo sapiens, UniProt P37288); assay: Vasopressin V1a receptor antagonist assay (FLIPR calcium, CHO-AVPR1a cells); format: cell-based
T1 construct: expressed in transfected cells; host or cells: CHO (CHO-AVPR1a, kept under G418 selection)
T1 sequence (P37288 whole entry): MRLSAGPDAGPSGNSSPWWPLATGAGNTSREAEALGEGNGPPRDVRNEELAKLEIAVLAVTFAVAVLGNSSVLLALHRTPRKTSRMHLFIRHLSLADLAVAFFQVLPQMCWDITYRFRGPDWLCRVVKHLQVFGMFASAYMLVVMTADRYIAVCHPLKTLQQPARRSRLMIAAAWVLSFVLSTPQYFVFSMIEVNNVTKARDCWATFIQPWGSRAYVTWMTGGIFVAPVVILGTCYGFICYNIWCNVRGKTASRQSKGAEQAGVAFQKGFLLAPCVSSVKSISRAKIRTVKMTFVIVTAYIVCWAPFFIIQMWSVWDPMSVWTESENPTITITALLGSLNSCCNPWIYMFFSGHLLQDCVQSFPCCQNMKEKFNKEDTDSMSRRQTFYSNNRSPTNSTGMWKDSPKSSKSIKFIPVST
Procedure, shortened: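 CHO cells expressing human AVPR1a were loaded with Calcium-6 dye and preincubated with compound for 15 min at 37° C. Cells were then challenged with AVP at its daily-determined EC80, and FLIPR fluorescence was read. Compounds were tested in duplicate as 10-point 1:3 dilutions from a top final concentration of 3 μM.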

[2] = target: T2, human Arginine Vasopressin Receptor V2 (AVPR2) (Homo sapiens, UniProt P30518); assay: Vasopressin V2 receptor antagonist assay (TR-FRET cAMP, 1321N1 cells); format: cell-based
T2 construct: host or cells: 1321N1 (cAMPZen V2 assay ready frozen cells)
T2 sequence (P30518 whole entry): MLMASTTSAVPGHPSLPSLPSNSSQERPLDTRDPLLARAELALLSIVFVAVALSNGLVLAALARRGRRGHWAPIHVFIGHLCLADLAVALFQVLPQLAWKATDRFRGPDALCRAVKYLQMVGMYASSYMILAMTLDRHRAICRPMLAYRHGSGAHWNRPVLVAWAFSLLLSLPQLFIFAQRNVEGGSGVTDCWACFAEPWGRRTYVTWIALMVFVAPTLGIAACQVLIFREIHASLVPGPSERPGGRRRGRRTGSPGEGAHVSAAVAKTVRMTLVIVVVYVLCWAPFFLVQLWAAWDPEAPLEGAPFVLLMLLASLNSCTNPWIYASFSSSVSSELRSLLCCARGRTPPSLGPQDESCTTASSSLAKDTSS
Protocol: The purpose of the assay was to determine the inhibitory effect of synthesized compounds on the Vasopressin receptor 2. The assay was performed in commercially available 1321N1 cells expressing the human Arginine Vasopressin Receptor V2 (AVPR2) (Perkin Elmer #ES-363-CF). Arginine Vasopressin (AVP) evokes an increase in intracellular cAMP in these cells which is measured in a TR-FRET assay using a Europium cAMP tracer and ULight labelled antibody reagents contained in a LANCE Ultra cAMP kit (Perkin Elmer #TRF0263). Increases in cAMP in the assay result in a reduction in TR-FRET as the cAMP produced by the stimulated cells competes with the Eu-cAMP tracer for binding sites on the ULight labelled antibody. Test compounds were assessed for their ability to affect the magnitude of the response to AVP, with antagonists showing a concentration-dependent decrease in the AVP-mediated reduction in TR-FRET signal.
cAMPZen V2 assay ready cells were thawed at 37° C. and resuspended directly from frozen in 9 ml growth medium consisting of DMEM supplemented with 10% v/v fetal bovine serum, 1× non-essential amino acids, and 1 mM sodium pyruvate. Cells were spun at 1000 rpm for 3 minutes and the supernatant was carefully removed and discarded. The pellet was resuspended in 5 ml stimulation buffer and the cell density determined using the Vi-Cell automated cell counter. The cell suspension was diluted to a 0.2×10^6/ml suspension ready for plating. To all wells of a white 384-well Optiplate (Perkin Elmer #6007299) 5 μL of cells in stimulation buffer were dispensed (1,000 cells per well). Stimulation buffer consisted of HBSS (+Ca/+Mg) supplemented with 5 mM HEPES, 0.1% BSA stabiliser and 0.5 mM IBMX.
At the start of each assay day the potency of AVP was assessed and an EC80 concentration determined for subsequent compound profiling. Assays were performed by first an addition of 2.5 μl of control or test compound at 4× final concentration in stimulation buffer followed by 2.5 μl of AVP at 4× final concentration in stimulation buffer. After a 1 hour reaction, detection reagents were added by first an addition of 5 μl EU-cAMP tracer, followed by 5 μl ULight-anti-cAMP both diluted as per the manufacturer's instructions. After a one hour incubation, plates were ready to be read (signals then remained stable for up to 24 hours). Changes in time resolved fluorescence were monitored with excitation via a laser (337 nm) measuring both 615 nm and 665 nm emission wavelengths. […] For compound profiling, test compounds were dispensed by the Labcyte Echo (10-point curve, 1:3 dilutions) in a target 0.1 μl volume then diluted 750-fold in stimulation buffer containing 3% DMSO prior to addition to the cells. At the end of the incubation period, 2.5 μl of AVP in stimulation buffer was added at the previously determined EC80 concentration.
In-plate controls for the assay included a Tolvaptan concentration-response curve as the reference V2 antagonist and an AVP concentration-response curve to confirm the reproducibility of the EC80 used for the compound challenge.

Row | SMILES | IC50 [1] [nM] | IC50 [2] [nM]
1 | Cc1cncc(N2CC3(CN(C(=O)N4c5ccc(F)cc5OCC4C)C3)C2)n1 (single isomer, unassigned) [20-2-A] | 500 to 1000 | ≥ 1000
2 | CC1COc2cc(F)ccc2N1C(=O)N1CC2(C1)CN(c1ncc(F)cn1)C2 (single isomer, unassigned) [18-4-B] | < 100 | ≥ 1000
3 | O=C(N1CC2(C1)CN(c1cnccn1)C2)N1CCOc2cc(Cl)ccc21 [8-3] | < 100 | ≥ 1000
4 | Cc1cncc(N2CC3(CN(C(=O)N4c5ccc(F)cc5OCC4C)C3)C2)n1 (stereo not shown) [20-2] | < 100 | < 100
5 | COc1ccnc(N2CC3(CN(C(=O)N4c5ccc(Cl)cc5OCC4C)C3)C2)c1 (stereo not shown) [20-8] | < 100 | 100 to 500
6 | Cc1nc(N2CC3(CN(C(=O)N4CCOc5cc(Cl)ccc54)C3)C2)ncc1F [6-1, (7-chloro-2,3-dihydro-4H-benzo[b][1,4]oxazin-4-yl)(6-(5-fluoro-4-methylpyrimidin-2-yl)-2,6-diazaspiro[3.3]heptan-2-yl)methanone] | < 100 | ≥ 1000
7 | O=C(N1CC2(C1)CN(c1ccc(F)cn1)C2)N1CCOCc2cc(Cl)ccc21 [8-4] | < 100 | 
8 | CC1COc2cc(F)ccc2N1C(=O)N1CC2(C1)CN(c1noc3ccccc13)C2 (stereo not shown) [4-3] | < 100 | ≥ 1000
9 | CC1COc2cc(Cl)ccc2N1C(=O)N1CC2(C1)CN(c1cc(C#N)ccn1)C2 (single isomer, unassigned) [20-6-B] | < 100 | < 100
10 | Cc1ccnc(N2CC3(CN(C(=O)N4c5ccc(Cl)cc5OCC4C)C3)C2)n1 (single isomer, unassigned) [20-12-B] | < 100 | < 100
11 | Cc1ccnc(N2CC3(CN(C(=O)N4CCOc5cc(Cl)ccc54)C3)C2)c1 [1-14] | < 100 | ≥ 1000
12 | CC1COc2cc(Cl)c(F)cc2N1C(=O)N1CC2(C1)CN(c1ncccn1)C2 (single isomer, unassigned) [19-2-B] | < 100 | 100 to 500
13 | CC1COc2cc(F)c(F)cc2N1C(=O)N1CC2(C1)CN(c1ncccn1)C2 (stereo not shown) [19-1, (6,7-difluoro-3-methyl-2,3-dihydro-4H-benzo[b][1,4]oxazin-4-yl)(6-(pyrimidin-2-yl)-2,6-diazaspiro[3.3]heptan-2-yl)methanone] | < 100 | ≥ 1000
14 | Cc1ccnc(N2CC3(CN(C(=O)N4c5ccc(F)cc5OCC4C)C3)C2)c1 (single isomer, unassigned) [20-4-B] | < 100 | < 100
15 | O=C(N1CC2(C1)CN(c1cnccn1)C2)N1CCC(O)c2cc(Cl)ccc21 (single isomer, unassigned) [13-3-A] | < 100 | ≥ 1000
16 | COc1ccnc(N2CC3(CN(C(=O)N4c5ccc(Cl)cc5OCC4C)C3)C2)c1 (single isomer, unassigned) [20-8-B] | < 100 | < 100
17 | CC1COc2cc(Cl)ccc2N1C(=O)N1CC2(C1)CN(c1noc3cccnc13)C2 (single isomer, unassigned) [18-3-B] | < 100 | 100 to 500
18 | COc1ccnc(N2CC3(CN(C(=O)N4c5ccc(Cl)cc5OCC4C)C3)C2)n1 (stereo not shown) [20-9] | < 100 | 100 to 500
19 | CC1COc2cc(F)ccc2N1C(=O)N1CC2(C1)CN(c1ncccn1)C2 (stereo not shown) [18-1, (7-fluoro-3-methyl-2,3-dihydro-4H-benzo[b][1,4]oxazin-4-yl)(6-(pyrimidin-2-yl)-2,6-diazaspiro[3.3]heptan-2-yl)methanone] | < 100 | ≥ 1000
20 | CC1COc2cc(Cl)ccc2N1C(=O)N1CC2(C1)CN(c1cccnc1)C2 (stereo not shown) [20-1, (7-chloro-3-methyl-2,3-dihydro-4H-benzo[b][1,4]oxazin-4-yl)(6-(pyridin-3-yl)-2,6-diazaspiro[3.3]heptan-2-yl)methanone] | < 100 | ≥ 1000
21 | CCC1COc2cc(Cl)ccc2N1C(=O)N1CC2(C1)CN(c1ccccn1)C2 (stereo not shown) [11-1, (7-chloro-3-ethyl-2,3-dihydro-4H-benzo[b][1,4]oxazin-4-yl)(6-(pyridin-2-yl)-2,6-diazaspiro[3.3]heptan-2-yl)methanone] | < 100 | < 100

Row | SMILES | IC50 [1] [nM] | IC50 [2] [nM]
22 | O=C(N1CC2(C1)CN(c1ccccn1)C2)N1CCC(O)c2cc(Cl)ccc21 (single isomer, unassigned) [13-2-B] | < 100 | ≥ 1000
23 | O=C(N1CC2(C1)CN(c1ccc(F)cn1)C2)N1CCC(F)c2cc(Cl)ccc21 (stereo not shown) [14-1, (6-chloro-4-fluoro-3,4-dihydroquinolin-1(2H)-yl)(6-(5-fluoropyridin-2-yl)-2,6-diazaspiro[3.3]heptan-2-yl)methanone] | < 100 | ≥ 1000
24 | COc1ccnc(N2CC3(CN(C(=O)N4c5ccc(Cl)cc5OCC4C)C3)C2)n1 (single isomer, unassigned) [20-9-B] | < 100 | 100 to 500
25 | CC1COc2cc(Cl)c(F)cc2N1C(=O)N1CC2(C1)CN(c1ncccn1)C2 (stereo not shown) [19-2] | < 100 | ≥ 1000
26 | Cc1ccnc(N2CC3(CN(C(=O)N4c5ccc(Cl)cc5OCC4C)C3)C2)c1 (stereo not shown) [20-11] | < 100 | < 100
27 | Cc1cccnc1N1CC2(CN(C(=O)N3CCOc4cc(Cl)ccc43)C2)C1 [1-5] | < 100 | ≥ 1000
28 | CC1COc2cc(F)ccc2N1C(=O)N1CC2(C1)CN(c1cc(C#N)ccn1)C2 (single isomer, unassigned) [20-3-B] | < 100 | 100 to 500
29 | CC1COc2cc(F)ccc2N1C(=O)N1CC2(C1)CN(c1ccc(F)cn1)C2 (stereo not shown) [12-1, (7-fluoro-3-methyl-2,3-dihydro-4H-benzo[b][1,4]oxazin-4-yl)(6-(5-fluoropyridin-2-yl)-2,6-diazaspiro[3.3]heptan-2-yl)methanone] | < 100 | 100 to 500
30 | O=C(N1CC2(C1)CN(c1ccc(F)cn1)C2)N1CCOc2cc(Cl)ccc21 [9-7] | < 100 | ≥ 1000
31 | COc1ccc2c(c1)OCCN2C(=O)N1CC2(C1)CN(c1ccc(F)cn1)C2 [9-2] | < 100 | ≥ 1000
32 | Cc1cnc(N2CC3(CN(C(=O)N4c5ccc(Cl)cc5OCC4C)C3)C2)cn1 (single isomer, unassigned) [20-5-B] | < 100 | < 100
33 | CC1COc2cc(F)c(F)cc2N1C(=O)N1CC2(C1)CN(c1ccc(F)cn1)C2 (single isomer, unassigned) [19-5-B] | < 100 | < 100
34 | Cc1nc(N2CC3(CN(C(=O)N4c5ccc(Cl)cc5OCC4C)C3)C2)ncc1F (stereo not shown) [20-7] | < 100 | 100 to 500
35 | CC1COc2cc(Cl)c(F)cc2N1C(=O)N1CC2(C1)CN(c1cccnn1)C2 (single isomer, unassigned) [19-4-A] | < 100 | ≥ 1000
36 | CC1COc2cc(Cl)ccc2N1C(=O)N1CC2(C1)CN(c1cc(C#N)ccn1)C2 (stereo not shown) [20-6] | < 100 | < 100
37 | Cc1nccnc1N1CC2(CN(C(=O)N3c4ccc(Cl)cc4OCC3C)C2)C1 (single isomer, unassigned) [20-10-A] | < 100 | 100 to 500
38 | O=C(N1CC2(C1)CN(c1ccc(F)cn1)C2)N1CCc2cc(Cl)ccc21 [8-11] | < 100 | ≥ 1000
39 | COc1ccnc(N2CC3(CN(C(=O)N4CCOc5cc(Cl)ccc54)C3)C2)c1 [1-15] | < 100 | ≥ 1000
40 | CC1COc2cc(F)c(F)cc2N1C(=O)N1CC2(C1)CN(c1cccnn1)C2 (stereo not shown) [19-3] | < 100 | ≥ 1000
41 | O=C(N1CC2(C1)CN(c1ncccn1)C2)N1CCOc2cc(Cl)ccc21 [1-4] | < 100 | ≥ 1000
42 | O=C(N1CC2(C1)CN(c1ccc(F)cn1)C2)N1CCC(O)c2cc(Cl)ccc21 (stereo not shown) [13-1, (6-chloro-4-hydroxy-3,4-dihydroquinolin-1(2H)-yl)(6-(5-fluoropyridin-2-yl)-2,6-diazaspiro[3.3]heptan-2-yl)methanone] | < 100 | 
